In ChEMBL document CHEMBL3588769, “Synthesis and quantitative structure-activity relationships study for phenylpropenamide derivatives as inhibitors of hepatitis B virus replication” (Eur J Med Chem, 2015):

Legend:
Hepatitis B virus = assay: Antiviral activity against HBV infected in human HepAD38 cells assessed as inhibition of viral DNA synthesis by dot blot hybridization method; format: functional, organism-based; design: -log(1/EC50): unit not given here; conditions: for EC50: Hepatitis B virus, HePAD38
[1] = Cytotoxicity against human HepAD38 cells assessed as reduction in cell viability; format: cell-based
HepG2 = assay: Cytotoxicity against human HepG2 cells assessed as reduction in cell viability; format: cell-based

Compound	-log(1/EC50) (Hepatitis B virus)	EC50 (Hepatitis B virus) [µM]	Activity [1]	Activity (HepG2)
O=C(N/C(C(=O)N1CCCCC1)=C(\Cl)c1ccccc1)c1ccccc1	0.07918	1.2	Non-toxic	Non-toxic
COc1ccccc1/C(Cl)=C(/NC(=O)c1ccccc1)C(=O)N1CCCCC1	1.322	21	Non-toxic	
Cc1ccccc1/C(Cl)=C(/NC(=O)c1ccccc1)C(=O)N1CCCCC1	-0.004365	1	Non-toxic	
O=C(N/C(C(=O)N1CCCCC1)=C(\Cl)c1ccccc1F)c1ccccc1	0.2553	1.8	Non-toxic	
O=C(N/C(C(=O)N1CCCCC1)=C(\Cl)c1ccc(Cl)cc1)c1ccccc1	1.708	51	Non-toxic	
Cc1ccc(/C(Cl)=C(/NC(=O)c2ccccc2)C(=O)N2CCCCC2)cc1	0.04139	1.1	Non-toxic	
O=C(N/C(C(=O)N1CCCCC1)=C(\Br)c1ccccc1)c1ccccc1	0.1139	1.3	Non-toxic	
N#Cc1ccccc1/C(Br)=C(/NC(=O)c1ccccc1)C(=O)N1CCCCC1	0.04139	1.1	Non-toxic	
O=C(N/C(C(=O)N1CCCCC1)=C(\Cl)c1cncc2ccccc12)c1ccccc1	1.462	29	Non-toxic	
O=C(N/C(C(=O)N1CCCCC1)=C(\Cl)c1ccco1)c1ccccc1	-0.09691	0.8	Non-toxic	
O=C(N/C(C(=O)N1CCCCC1)=C(\Br)c1ccccc1[N+](=O)[O-])c1ccccc1	0.7782	6	Non-toxic	
O=C(N/C(C(=O)N1CCCCC1)=C(\Br)c1ccc(Cl)cc1)c1ccccc1	1	10	Non-toxic	
Cc1ccccc1/C(Br)=C(/NC(=O)c1ccccc1)C(=O)N1CCCCC1	-0.05061	0.9	Non-toxic	
Cc1ccc(/C(Br)=C(/NC(=O)c2ccccc2)C(=O)N2CCCCC2)cc1	0.4472	2.8	Non-toxic	
COc1ccccc1/C(Br)=C(/NC(=O)c1ccccc1)C(=O)N1CCCCC1	0.3222	2.1	Non-toxic	
COc1ccc(/C(Br)=C(/NC(=O)c2ccccc2)C(=O)N2CCCCC2)cc1	0.9031	8	Non-toxic	
O=C(N/C(C(=O)N1CCCCC1)=C(\Br)c1ccccc1Br)c1ccccc1	1.398	25	Non-toxic	
O=C(N/C(C(=O)N1CCCCC1)=C(\Br)c1cccc(Br)c1)c1ccccc1	1.544	35	Non-toxic	

Compound	-log(1/EC50) (Hepatitis B virus)	EC50 (Hepatitis B virus) [µM]	Activity [1]	Activity (HepG2)
O=C(N/C(C(=O)N1CCCCC1)=C(\Br)c1ccc(Br)cc1)c1ccccc1	1.813	65	Non-toxic	
O=C(N/C(C(=O)N1CCCCC1)=C(\Br)c1ccccc1F)c1ccccc1	0.1761	1.5	Non-toxic	
O=C(N/C(C(=O)N1CCCCC1)=C(\Br)c1ccc(F)cc1)c1ccccc1	0.2553	1.8	Non-toxic	
O=C(N/C(C(=O)N1CCCCC1)=C(\Br)c1ccccc1Cl)c1ccccc1	0.9031	8	Non-toxic	
O=C(N/C(C(=O)N1CCCCC1)=C(\Br)c1cccnc1)c1ccccc1	0	1	Non-toxic	
O=C(N/C(C(=O)N1CCCCC1)=C(\Br)c1cnc2ccccc2c1)c1ccccc1	0.8451	7	Non-toxic	
O=C(N/C(C(=O)N1CCCCC1)=C(\Br)c1cncc2ccccc12)c1ccccc1	0.699	5	Non-toxic	
O=C(N/C(C(=O)N1CCCCC1)=C(\Br)c1ccco1)c1ccccc1	-0.04576	0.9	Non-toxic	
N#Cc1ccccc1/C(Cl)=C(/NC(=O)c1ccccc1)C(=O)N1CCCCC1	0.2304	1.7	Non-toxic	
O=C(N/C(C(=O)N1CCCCC1)=C(\Cl)c1ccccc1[N+](=O)[O-])c1ccccc1	1.531	34	Non-toxic	
COc1ccc(/C(Cl)=C(/NC(=O)c2ccccc2)C(=O)N2CCCCC2)cc1	1.398	25	Non-toxic	
O=C(N/C(C(=O)N1CCCCC1)=C(\Cl)c1ccccc1Br)c1ccccc1	2	> 100	Non-toxic	
O=C(N/C(C(=O)N1CCCCC1)=C(\Cl)c1cccc(Br)c1)c1ccccc1	2	> 100	Non-toxic	
O=C(N/C(C(=O)N1CCCCC1)=C(\Cl)c1ccc(Br)cc1)c1ccccc1	2	> 100	Non-toxic	
O=C(N/C(C(=O)N1CCCCC1)=C(\Cl)c1ccc(F)cc1)c1ccccc1	0.3424	2.2	Non-toxic	
O=C(N/C(C(=O)N1CCCCC1)=C(\Cl)c1ccccc1Cl)c1ccccc1	1.591	39	Non-toxic	
O=C(N/C(C(=O)N1CCCCC1)=C(\Cl)c1cccnc1)c1ccccc1	-0.02687	0.9	Non-toxic	
O=C(N/C(C(=O)N1CCCCC1)=C(\Cl)c1cnc2ccccc2c1)c1ccccc1	1.477	30	Non-toxic	
